These results are taken from article PMC8530938 (Chemico-biological interactions, 2021).

Like-named read-outs stand apart in the source and are kept apart here.

One data set relates to yeast ADH2. The following applies: oxidation; ref [77]; cited from earlier work.
The next data set relates to yeast ADH1. The following applies: oxidation; ref [77]; cited from earlier work.
The target of data set [1] is wild-type yeast alcohol dehydrogenase (ADH1). As to conditions: pH 7.3, 30 °C, ref [21], cited from earlier work.
Data set [2] deals with T1, T45G yeast alcohol dehydrogenase (ADH1) (Saccharomyces cerevisiae, UniProt P00330, T46G). Put plainly: biochemical. The class given is biochemical.
The target in data set [3] is T1, T45G yeast alcohol dehydrogenase (ADH1).
The target in the next data set is horse liver ADH. The following applies: cited from earlier work.
Data set [4] has as its target wild-type yeast enzyme (ADH1). As to conditions: read-out: Kd of NAD+; pH 8; ref [11]; cited from earlier work.
Data set [5] concerns the target T1, T45G yeast alcohol dehydrogenase (ADH1). Put plainly: Spectrophotometric titration with NAD+ in the presence of 10 mM pyrazole. The class given is binding. The following applies: titration in the presence of 10 mM pyrazole.
Data set [6] has as its system horse liver ADH1E with S48A substitution. The following applies: ref [6]; cited from earlier work.

T1 sequence (P00330 2-348 T46G): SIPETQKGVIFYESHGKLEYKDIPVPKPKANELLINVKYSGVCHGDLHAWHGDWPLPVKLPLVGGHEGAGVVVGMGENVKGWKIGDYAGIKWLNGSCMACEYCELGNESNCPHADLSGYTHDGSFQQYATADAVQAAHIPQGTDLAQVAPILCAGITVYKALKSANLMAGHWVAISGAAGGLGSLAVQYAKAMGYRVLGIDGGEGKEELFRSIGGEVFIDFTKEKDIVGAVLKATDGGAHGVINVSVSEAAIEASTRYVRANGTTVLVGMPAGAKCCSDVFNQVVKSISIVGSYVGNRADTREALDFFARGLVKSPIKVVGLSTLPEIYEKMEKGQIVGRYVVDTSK

Turning to `OCc1ccccc1` [Benzyl alcohol], the turnover number is 1.9 s⁻¹ in the data set on yeast ADH2 and 0.012 s⁻¹ with yeast ADH1.

As for `OCC(F)(F)F` [CF3CH2OH, 2,2,2-trifluoroethanol], the Ki was 2500 µM in data set [1] (read-out: Ki, dissociation (inhibition) constant, competitive inhibitor of ethanol) and 27000 µM in [2]. In data set [2] (pH 7.3), the “increase of dissociation constant (Ki), T45G relative to wild type” value was 10 fold.

In the case of `NC(=O)C1=CN([C@@H]2O[C@H](COP(=O)(O)OP(=O)(O)OC[C@H]3O[C@@H](n4cnc5c(N)ncnc54)[C@H](O)[C@@H]3O)[C@@H](O)[C@H]2O)C=CC1` [NADH], the “Kq, Michaelis constant for NADH” value in data set [1] is 94 µM; in [2] (pH 7.3, 30 °C) it was 47 µM. Also, the Ki in data set [1] (read-out: Kiq, dissociation (inhibition) constant for NADH) was 31 µM; in data set [2] (read-out: Kiq, dissociation (inhibition) constant for NADH, pH 7.3, 30 °C), 70 µM; in [3] (read-out: Kiq, NADH, pH 5.52, 30 °C) it was 3.8 µM; in data set [3] (read-out: Kiq, NADH, pH 6.06, 30 °C), 8.6 µM; in data set [3] (read-out: Kiq, NADH, pH 6.52, 30 °C), 11 µM; in data set [3] (read-out: Kiq, NADH, pH 7.00, 30 °C), 38 µM. For the same molecule, the Ki came to 156 µM in [3] (read-out: Kiq, NADH, pH 7.65, 30 °C); 290 µM in [3] (read-out: Kiq, NADH, pH 8.08, 30 °C); 450 µM in data set [3] (read-out: Kiq, NADH, pH 8.96, 30 °C). In addition, the “Kq, NADH” value turned out to be 9.6 µM in data set [3] (pH 5.52, 30 °C); 3.4 µM in data set [3] (pH 6.06, 30 °C); 18 µM in [3] (pH 6.52, 30 °C); 13 µM in [3] (pH 7.00, 30 °C); 220 µM in [3] (pH 7.65, 30 °C); 320 µM in data set [3] (pH 8.08, 30 °C). Moreover, the “Kq, NADH” value in [3] (pH 8.96, 30 °C) came to 910 µM.

As to `NC(=O)c1ccc[n+]([C@@H]2O[C@H](COP(=O)([O-])OP(=O)(O)OC[C@H]3O[C@@H](n4cnc5c(N)ncnc54)[C@H](O)[C@@H]3O)[C@@H](O)[C@H]2O)c1` [NAD^+], the Kd at horse liver ADH (read-out: Kd of NAD+, open conformation of the protonated enzyme, pH 8, ref [11]) was 670 µM; at horse liver ADH (read-out: observed dissociation constant for NAD+, after deprotonation and the conformational change, ref [52]), 27 µM; in [4], 1000 µM. Moreover, the “Ka, Michaelis constant for NAD+” value in data set [1] (83 mM potassium phosphate, 40 mM KCl, 0.25 mM EDTA) was 160 µM; in [2] (pH 7.3, 30 °C, 83 mM potassium phosphate, 40 mM KCl, 0.25 mM EDTA) it was 1500 µM. Moreover, the Ki is 950 µM in data set [1] (read-out: Kia, dissociation (inhibition) constant for NAD+); 1600 µM in data set [2] (read-out: Kia, dissociation (inhibition) constant for NAD+, pH 7.3, 30 °C); 800 µM in data set [3] (read-out: Kia, NAD+, pH 5.60, 30 °C); 650 µM in [3] (read-out: Kia, NAD+, pH 6.05, 30 °C); 720 µM in [3] (read-out: Kia, NAD+, pH 6.54, 30 °C); 880 µM in [3] (read-out: Kia, NAD+, pH 7.00, 30 °C). Further, the Ki stood at 1130 µM in data set [3] (read-out: Kia, NAD+, pH 8.07, 30 °C); 1470 µM in [3] (read-out: Kia, NAD+, pH 9.00, 30 °C); 2370 µM in data set [3] (read-out: Kia, NAD+, pH 9.95, 30 °C). For the same molecule, the “apparent Kd for NAD+” value in data set [5] is on record as “about the same as for wild-type enzyme”. Besides, the “Ka, NAD+” value in data set [3] (pH 5.60, 30 °C) was found to be 660 µM; in data set [3] (pH 6.05, 30 °C) it was 510 µM; in data set [3] (pH 6.54, 30 °C), 720 µM; in data set [3] (pH 7.00, 30 °C), 690 µM; in data set [3] (pH 8.07, 30 °C) it was 2100 µM; in data set [3] (pH 9.00, 30 °C), 2140 µM. Further, in data set [3] (pH 9.95, 30 °C), the “Ka, NAD+” value was determined as 1580 µM.

For `CC=O` [acetaldehyde], the “V2/Et, turnover number for acetaldehyde reduction” value in [1] is 1800 s⁻¹; in data set [2] (pH 7.3, 30 °C), 7.8 s⁻¹. Moreover, the “Kp, CH3CHO” value in [3] (pH 5.52, 30 °C) was determined as 52 mM; in data set [3] (pH 6.06, 30 °C), 46 mM; in data set [3] (pH 6.52, 30 °C), 56 mM; in data set [3] (pH 7.00, 30 °C) it was 41 mM; in [3] (pH 7.65, 30 °C), 43 mM; in data set [3] (pH 8.08, 30 °C) it was 35 mM. The “Kp, CH3CHO” value in data set [3] (pH 8.96, 30 °C) stood at 33 mM. Further, the “V2/Et (acetaldehyde reduction)” value was 21 s⁻¹ in data set [3] (pH 5.52, 30 °C); 16 s⁻¹ in data set [3] (pH 6.06, 30 °C); 16 s⁻¹ in data set [3] (pH 6.52, 30 °C); 9.5 s⁻¹ in data set [3] (pH 7.00, 30 °C); 9.3 s⁻¹ in [3] (pH 7.65, 30 °C); 7.3 s⁻¹ in data set [3] (pH 8.08, 30 °C). For the same molecule, the “V2/Et (acetaldehyde reduction)” value in data set [3] (pH 8.96, 30 °C) worked out at 4.2 s⁻¹.

For `CCO` [ethanol], the “V1/Et, turnover number for ethanol oxidation” value in [1] is 360 s⁻¹; in data set [2] (pH 7.3, 30 °C), 0.64 s⁻¹. Also, in data set [6], the turnover with ethanol is 0.018 s⁻¹. Besides, the “V1/Et (ethanol oxidation)” value in data set [3] (pH 5.60, 30 °C) stood at 0.11 s⁻¹; in [3] (pH 6.05, 30 °C) it was 0.19 s⁻¹; in [3] (pH 6.54, 30 °C) it was 0.32 s⁻¹; in data set [3] (pH 7.00, 30 °C), 0.42 s⁻¹; in data set [3] (pH 8.07, 30 °C), 0.72 s⁻¹; in data set [3] (pH 9.00, 30 °C) it was 0.56 s⁻¹. Besides, the “V1/Et (ethanol oxidation)” value in data set [3] (pH 9.95, 30 °C) is 0.44 s⁻¹. Besides, the Kb in data set [3] (read-out: Kb, CH3CH2OH, pH 9.95, 30 °C) was found to be 91000 µM.
